Test results from PubChem BioAssay AID2060886 (Molecular Pharmacology Branch, DTP, NCI, 2025).

Tested on: 653999-131-R-J2-PDC complex spheroids, growth inhibition
Assay: Anticancer human tumor 653999-131-R-J2-PDC patient-derived lung adenocarcinoma cell line growth inhibition [RAS]
Details: for IC50: curve of first compound; for viability, T/C: stronger effect = lower value
Method in brief: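 Tumour cells grown as complex spheroids with HUVEC endothelial cells and mesenchymal stem cells, treated with RAS pathway inhibitor combinations. Each agent spans half-log steps from near clinical Cmax, or 10 microM where Cmax is unknown.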
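Note: spheroids exposed to the agents for seven days before the readout.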

## CC(=O)OC12COC1CC(O)C1(C)C(=O)C(O)C3=C(C)C(OC(=O)C(O)C(NC(=O)OC(C)(C)C)c4ccccc4)CC(O)(C(OC(=O)c4ccccc4)C21)C3(C)C (centres undefined) + CCn1c(-c2cc(N3CCN(C)CC3)cnc2C(C)OC)c2c3cc(ccc31)-c1csc(n1)CC(NC(=O)C1CC1C)C(=O)N1CCCC(N1)C(=O)OCC(C)(C)C2
Second compound 0.000949 µM
  IC50: < 31.6 nM
Second compound 0.003 µM
  IC50: < 31.6 nM
Second compound 0.00949 µM
  IC50: < 31.6 nM
Second compound 0.03 µM
  IC50: < 31.6 nM
Second compound 0.0949 µM
  IC50: < 31.6 nM
Second compound 0.3 µM
  IC50: < 31.6 nM
Second compound 0.000949 µM, first compound 0.0316 µM
  viability, T/C: 38.1%
Second compound 0.000949 µM, first compound 0.1 µM
  viability, T/C: 39.4%
Second compound 0.000949 µM, first compound 0.316 µM
  viability, T/C: 42.8%
Second compound 0.000949 µM, first compound 1 µM
  viability, T/C: 43.5%
Second compound 0.000949 µM, first compound 3.16 µM
  viability, T/C: 48.8%
Second compound 0.000949 µM, first compound 10 µM
  viability, T/C: 51.6%
Second compound 0.003 µM, first compound 0.0316 µM
  viability, T/C: 29.9%
Second compound 0.003 µM, first compound 0.1 µM
  viability, T/C: 27%
Second compound 0.003 µM, first compound 0.316 µM
  viability, T/C: 27.6%
Second compound 0.003 µM, first compound 1 µM
  viability, T/C: 35.4%
Second compound 0.003 µM, first compound 3.16 µM
  viability, T/C: 30.9%
Second compound 0.003 µM, first compound 10 µM
  viability, T/C: 31.7%
Second compound 0.00949 µM, first compound 0.0316 µM
  viability, T/C: 14.9%
Second compound 0.00949 µM, first compound 0.1 µM
  viability, T/C: 21%
Second compound 0.00949 µM, first compound 0.316 µM
  viability, T/C: 20.7%
Second compound 0.00949 µM, first compound 1 µM
  viability, T/C: 21.9%
Second compound 0.00949 µM, first compound 3.16 µM
  viability, T/C: 21.7%
Second compound 0.00949 µM, first compound 10 µM
  viability, T/C: 19.1%
Second compound 0.03 µM, first compound 0.0316 µM
  viability, T/C: 13.3%
Second compound 0.03 µM, first compound 0.1 µM
  viability, T/C: 13.2%
Second compound 0.03 µM, first compound 0.316 µM
  viability, T/C: 12.8%
Second compound 0.03 µM, first compound 1 µM
  viability, T/C: 13.2%
Second compound 0.03 µM, first compound 3.16 µM
  viability, T/C: 14%
Second compound 0.03 µM, first compound 10 µM
  viability, T/C: 13.1%
Second compound 0.0949 µM, first compound 0.0316 µM
  viability, T/C: 11.5%
Second compound 0.0949 µM, first compound 0.1 µM
  viability, T/C: 12.1%
Second compound 0.0949 µM, first compound 0.316 µM
  viability, T/C: 13.8%
Second compound 0.0949 µM, first compound 1 µM
  viability, T/C: 10.6%
Second compound 0.0949 µM, first compound 3.16 µM
  viability, T/C: 12.6%
Second compound 0.0949 µM, first compound 10 µM
  viability, T/C: 12.2%
Second compound 0.3 µM, first compound 0.0316 µM
  viability, T/C: 8.97%
Second compound 0.3 µM, first compound 0.1 µM
  viability, T/C: 10.1%
Second compound 0.3 µM, first compound 0.316 µM
  viability, T/C: 12%
Second compound 0.3 µM, first compound 1 µM
  viability, T/C: 13.4%
Second compound 0.3 µM, first compound 3.16 µM
  viability, T/C: 12.2%
Second compound 0.3 µM, first compound 10 µM
  viability, T/C: 12.3%

## CCc1c2c(nc3ccc(O)cc13)-c1cc3c(c(=O)n1C2)COC(=O)[C@]3(O)CC + CCn1c(-c2cc(N3CCN(C)CC3)cnc2C(C)OC)c2c3cc(ccc31)-c1csc(n1)CC(NC(=O)C1CC1C)C(=O)N1CCCC(N1)C(=O)OCC(C)(C)C2
Second compound 0.000949 µM
  IC50: 3.61 nM
Second compound 0.003 µM
  IC50: 1.3 nM
Second compound 0.00949 µM
  IC50: < 0.949 nM
Second compound 0.03 µM
  IC50: < 0.949 nM
Second compound 0.0949 µM
  IC50: < 0.949 nM
Second compound 0.3 µM
  IC50: < 0.949 nM
Second compound 0.000949 µM, first compound 0.000949 µM
  viability, T/C: 70.2%
Second compound 0.000949 µM, first compound 0.003 µM
  viability, T/C: 48.4%
Second compound 0.000949 µM, first compound 0.00949 µM
  viability, T/C: 42.2%
Second compound 0.000949 µM, first compound 0.03 µM
  viability, T/C: 25.1%
Second compound 0.000949 µM, first compound 0.0949 µM
  viability, T/C: 17.2%
Second compound 0.000949 µM, first compound 0.3 µM
  viability, T/C: 11.2%
Second compound 0.003 µM, first compound 0.000949 µM
  viability, T/C: 56%
Second compound 0.003 µM, first compound 0.003 µM
  viability, T/C: 34.1%
Second compound 0.003 µM, first compound 0.00949 µM
  viability, T/C: 30.6%
Second compound 0.003 µM, first compound 0.03 µM
  viability, T/C: 17.5%
Second compound 0.003 µM, first compound 0.0949 µM
  viability, T/C: 14.7%
Second compound 0.003 µM, first compound 0.3 µM
  viability, T/C: 10.1%
Second compound 0.00949 µM, first compound 0.000949 µM
  viability, T/C: 39.1%
Second compound 0.00949 µM, first compound 0.003 µM
  viability, T/C: 27.3%
Second compound 0.00949 µM, first compound 0.00949 µM
  viability, T/C: 18.9%
Second compound 0.00949 µM, first compound 0.03 µM
  viability, T/C: 14.1%
Second compound 0.00949 µM, first compound 0.0949 µM
  viability, T/C: 9.53%
Second compound 0.00949 µM, first compound 0.3 µM
  viability, T/C: 6.56%
Second compound 0.03 µM, first compound 0.000949 µM
  viability, T/C: 29.8%
Second compound 0.03 µM, first compound 0.003 µM
  viability, T/C: 18.2%
Second compound 0.03 µM, first compound 0.00949 µM
  viability, T/C: 17.8%
Second compound 0.03 µM, first compound 0.03 µM
  viability, T/C: 9.32%
Second compound 0.03 µM, first compound 0.0949 µM
  viability, T/C: 6.76%
Second compound 0.03 µM, first compound 0.3 µM
  viability, T/C: 6.96%
Second compound 0.0949 µM, first compound 0.000949 µM
  viability, T/C: 23.9%
Second compound 0.0949 µM, first compound 0.003 µM
  viability, T/C: 15.4%
Second compound 0.0949 µM, first compound 0.00949 µM
  viability, T/C: 11.4%
Second compound 0.0949 µM, first compound 0.03 µM
  viability, T/C: 9.9%
Second compound 0.0949 µM, first compound 0.0949 µM
  viability, T/C: 7.72%
Second compound 0.0949 µM, first compound 0.3 µM
  viability, T/C: 5.39%
Second compound 0.3 µM, first compound 0.000949 µM
  viability, T/C: 21.1%
Second compound 0.3 µM, first compound 0.003 µM
  viability, T/C: 14.4%
Second compound 0.3 µM, first compound 0.00949 µM
  viability, T/C: 11.6%
Second compound 0.3 µM, first compound 0.03 µM
  viability, T/C: 9.69%
Second compound 0.3 µM, first compound 0.0949 µM
  viability, T/C: 6.54%
Second compound 0.3 µM, first compound 0.3 µM
  viability, T/C: 4.62%
